The values that follow come from US8790883B2, “Methods of identifying NF-κB inhibitors” (priority 2003, dated 2014).

Ends that are not written are not given here. Peptide text beside a SMILES is read from it. * marks the point of attachment. BODIPYFLEthylmaleimide = Cc1cc(C)n2c1C=C1C=CC(CCC(=O)NCCN3C(=O)CC(*)C3=O)=[N+]1[B-]2(F)F; BODIPY = not defined here

The nature of data set [1]: Cytotoxicity of NLM-DR derived peptides (MTS, FACS, microscope), Table 2.
The subject of data set [2] is LPS-induced NF-κB activation. Briefly: More stringent NF-κB inhibition assay, second procedure: peptide internalization, washing, 24 h growth, then LPS. It counts as cell-based, murine. The conditions noted are these: 10 μM peptide. The text has this: Left panels show a helical wheel diagram of CC2 (A) and LZ (B) peptides. The view is from the top the molecule. The (a) through (g) positions, which are an essential feature of coiled coil sequence (Vinson, 2002, Mol. Cell. Biol.) represent sequential positions in each peptide sequence. The first (a) and fourth (d) positions that are generally occupied by hydrophobic amino acids constitute the hydrophobic core for parallel as well as antiparallel-coiled coils. Mutations that were introduced in (a) positions of the CC2 variant (BODIPY-Ant-CC2 (Mu); shown as residues 6-40 of SEQ ID NO:3, with glycine mutations corresponding to residues 6-40 of SEQ ID NO:5) or in (d) positions of the LZ variant (BODIPY-Ant-(Mu) are shown. In the right panels, 70Z3-C3 cells were incubated for 2 hours in the absence (control) or in the presence of 10 μM of cell permeable wild type (BODIPY-Ant-CC2 (WT)) or mutant (BODIPY-Ant-CC2 (Mu)) CC2 peptides (A) or wild type (BODIPY-Ant-LZ (WT)) or mutant (BODIPY-Ant-(Mu)) LZ peptides (B). The cells were then extensively washed to remove the excess peptide which had not been internalized and the cells were then diluted three times and allowed to grow for 24 hours before treatment for 5 hours with (+) or without LPS (−). NF-κB activity was measured using the β-galactosidase assay. Error bars represent the standard deviation of two independent experiments.
(A) Sequence alignment of the NEMO-derived LZ (residues 301-336 of SEQ ID NO: 12) and the GCN4 peptides (residues 23-55 of SEQ ID NO:8). Both coiled-coil motifs were aligned using clustalX. Identical and similar amino acid residues (shaded) are indicated by (!) or (*), respectively. (B) Overview and helical wheel diagram of the GCN4 coiled-coil (top view). The amino-acid sequence of GCN4 is shown with its corresponding [a-g] positions and residues that differ from the corresponding NEMO-derived LZ sequence are boxed according to their degree of conservation. Identical (open square) and similar residues (open triangle) are indicated. […] NF-κB activity was measured using the b-galactosidase assay. […]

Data set [3] has as its system LPS-induced NF-κB activation. Briefly: NF-κB inhibition assay, first procedure: LPS-induced NF-κB dependent β-galactosidase reporter in 70Z/3-C3 cells. Conditions: peptide 2 h, LPS 3 h, 70Z3-C3 cells (FIG. 3D). The class given is cell-based, murine.
Method: The resulting cell line, 70Z3-C3, was incubated for 2 hours in the absence or in the presence of 20 μM of antennapedia peptide (Ant), or BODIPY-labeled antennapedia peptide (BODIPY-Ant), or BODIPY-labeled antennapedia peptide coupled to CC2 (BODIPY-Ant-CC2) or LZ (BODIPY-Ant-LZ) peptides, After peptide internalization, cells were treated for 5 hours with LPS (3 μg/ml, (+) in left panel) or untreated (right panel and (−) in left panel) and the NF-κB activity was measured by β-galactosidase assay. Error bars represent the standard deviation of three separate experiments. (B) Concentration dependence of inhibition of LPS-induced NF-κB activation by BODIPY-Ant-CC2 peptide (left panel) or BODIPY-Ant-LZ peptide (right panel). Cells were treated as in (A) but with different concentration of peptide as indicated. The potential of each peptide to inhibit LPS-induced NF-κB activation was measured by determining the IC50 value that correspond to 50% inhibition of LPS-induced NF-κB activation as compared to the control (no peptide) (C). (D) Effect of the N-fusion sequence of antennapedia on the inhibition of NF-κB activation. Control (no peptide) or CC2, or LZ peptides, with (BODIPY-ANT-CC2, BODIPY-ANT-LZ) or without the antennapedia sequence at the N-terminus (CC2, LZ) were incubated for 2 hours with 70Z3-C3 cells followed with (+) or without (−) the LPS-treatment for 3 hours. NF-κB activity was then measured by β-galactosidase assay.
In a first procedure 2.2×10^5 70Z/3-C3 cells in 220 μl of RPMI 1640 supplemented with 10% fetal calf serum (FCS) and 50 μM β-mercaptoethanol were placed in a 96-well plate and incubated with various concentrations of peptide (0 to 20 μM) at 37° C. in 5% CO2 incubator. After two hours an equal portion (100 μl) of each cell sample transferred in two wells containing each 10^5 cells. One aliquot of cells was then treated for 5 hours with lipopolysaccharides from Salmonella abortus (Sigma) at 0.5 μg/ml final concentration, and the other one left-treated. After 5 hours, cells were centrifuged at 400×g for 5 min at room temperature and the cell pellets were washed three times with cold PBS (250 μl) by centrifugation. Cells were then lysed in the lysis buffer (25 mM tris-phosphate buffer at pH 7.8 containing 8 mM magnesium chloride, 1 mM dithioerythreitol, 1% Triton X-100, 15% glycerol and a protease inhibitor mixture (Roche)), and samples were centrifuged at 4° C. for 20 min to clarify the lysate. The supernatant was then kept on ice, and 30 μl was then assayed to measure the β-galactosidase activity with a plate luminometer (Berthold) using the GALACTON-STAR™ as chemiluminescent substrate (BD Biosciences Clontech, Bronstein et al., 1989). Background of reaction was measured by mixing for 1 hour 30 μl of lysis buffer with the reaction buffer (196 μl) and the GALACTON-STAR™ substrate (4 μl) provided by BD Biosciences. In a second procedure and a more stringent assay, 70Z/3-C3 cells (2.2×105 in 220 μl medium) were centrifuged at 400×g at room temperature after peptide internalization for 2 hours, and cell pellets were washed three times with 200 μl of PBS by centrifugation. Cells were then diluted three times with complete medium, and allowed to grow for at least 24 hours. The following steps are identical to the first procedure.
To analyze the inhibition potential of LPS-induced NF-κB activation by cell permeable BODIPY-Ant-CC2 and BODIPY-Ant-LZ peptides, the present inventors stably transfected the murine pre-B 70Z3 cell line with p12XlacZ-kB, which bears the β-galactosidase reporter gene under the control of the NF-κB transcription factor.
A short description of data set [4]: Analytical gel filtration, oligomeric states of peptides. Conditions: 10 μM, Superdex 75, buffer with 0.1 mM DDM. It counts as physicochemical. The protocol:
All peptides were loaded at a 10 μM concentration on a superdex 75 HR10/30 column equilibrated in a buffer containing 0.1 mM DDM to improve recovery (see “Materials and methods”). Chromatographic profiles of the CC2 mutant (dashed line) and the CC2 wild type (solid line) fused (BODIPY-Ant-CC2 (WT), BODIPY-Ant-CC2 (Mu), or not fused to the antennapedia sequence (CC2 (WT), CC2 (Mu)) are shown in left panels, and elution profiles of the LZ mutant (dashed line) and the wild type (solid line) fused (BODIPY-Ant-LZ (WT), BODIPY-Ant-LZ (Mu), or not fused to the antennapedia sequence (LZ (WT), LZ (Mu)) are represented in right panels. Elution volumes of globular protein markers are indicated by arrows: Oval, ovalbumin (43 kDa); Chym, chymotrypsinogene A (25 kDa); Ribo, Ribonuclease (13.4 kDa) and Apro, aprotinin (6.5 kDa).
The oligomeric states of peptides were determined by filtration as described in Traincard et al., 2003. In brief, 500 μl samples were loaded on a SUPERDEX™ 75 HR 10/30 column equilibrated in 50 mM Tris-HCl pH 8.0 containing 200 mM NaCl and 0.1 mM DDM, at a constant flow rate of 0.4 ml/min. The presence of the DDM detergent was added in the equilibrium buffer to minimize the adsorption in the column and to increase the peptide recovery. The column was calibrated in the same equilibrium buffer with blue dextran 2000 (void volume), dithioerythritol (total volume), bovine serum albumin (67 kDa, Rs=35.2 Å), ovalbumine (43 kDa, Rs=27.5 Å), chymotrypsinogen A (25 kDa, Rs=21.1 Å), ribonuclease A (13.7 kDa, Rs=16.4 Å), cytochrome C (12.4 kDa, Rs=17.7 Å) and aprotinin (6.5 KDa, Rs=13.5 Å).
(In general: In gel filtration, larger molecules generally elute earlier.)

The nature of data set [5]: Circular dichroism studies of helix stability. The class given is physicochemical. The text has this:
From circular dichroism studies (CD), it appears that CC2 and LZ peptides adopt a helicoidal structure, depending on their concentration. […] RMN and Rayon X Diffraction studies have confirmed the structure of CC2.
(CD spectra are sensitive to the conformation of chiral molecules.)

For `CC[C@H](C)[C@H](NC(=O)[C@H](CC(=O)O)NC(=O)[C@H](C)NC(=O)[C@H](CCC(N)=O)NC(=O)[C@H](C)NC(=O)[C@H](CCCCN)NC(=O)[C@H](CC(C)C)NC(=O)[C@H](CCCCN)NC(=O)[C@H](CCCCN)NC(=O)[C@H](Cc1c[nH]c2ccccc12)NC(=O)[C@H](CCCCN)NC(=O)[C@H](CCSC)NC(=O)[C@H](CCCNC(=N)N)NC(=O)[C@H](CCCNC(=N)N)NC(=O)[C@H](CC(N)=O)NC(=O)[C@H](CCC(N)=O)NC(=O)[C@H](Cc1ccccc1)NC(=O)[C@H](Cc1c[nH]c2ccccc12)NC(=O)[C@@H](NC(=O)[C@H](CCCCN)NC(=O)[C@@H](NC(=O)[C@H](CCC(N)=O)NC(=O)[C@H](CCCNC(=N)N)NC(=O)[C@H](CSC1CC(=O)N(CCNC(=O)CCC2=[N+]3C(=Cc4c(C)cc(C)n4[B-]3(F)F)C=C2)C1=O)NC(C)=O)[C@@H](C)CC)[C@@H](C)CC)C(=O)N[C@@H](Cc1ccc(O)cc1)C(=O)N[C@@H](CCCCN)C(=O)N[C@@H](C)C(=O)N[C@@H](CCCNC(=N)N)C(=O)N[C@@H](Cc1ccccc1)C(=O)N[C@@H](CCC(N)=O)C(=O)N[C@@H](C)C(=O)N[C@@H](CCC(=O)O)C(=O)N[C@@H](CCCNC(=N)N)C(=O)N[C@@H](Cc1c[nH]cn1)C(=O)N[C@@H](C)C(=O)N[C@@H](CCCNC(=N)N)C(=O)N[C@@H](CCC(=O)O)C(=O)N[C@@H](CCCCN)C(N)=O` (stereo partly drawn) [BODIPY-Ant-NLM-DR] (Ac-C(BODIPYFLEthylmaleimide)RQIKIWFQNRRMKWKKLKAQADIYKARFQAERHAREK-NH2), in the data set on 70Z/3-C3 cells, the “Cellular uptake relative efficiency (FACS)” value is reported as “+”.
On to `CC[C@H](C)[C@H](NC(=O)[C@H](CC(=O)O)NC(=O)[C@H](C)NC(=O)[C@H](CCC(N)=O)NC(=O)[C@H](C)NC(=O)[C@H](CCCCN)NC(=O)[C@H](CC(C)C)NC(=O)[C@H](CCCNC(=N)N)NC(=O)[C@H](CCCNC(=N)N)NC(=O)[C@H](CCCNC(=N)N)NC(=O)[C@H](CCCNC(=N)N)NC(=O)[C@H](CCCNC(=N)N)NC(=O)[C@H](CCCNC(=N)N)NC(=O)[C@H](CCCNC(=N)N)NC(=O)[C@H](CSC1CC(=O)N(CCNC(=O)CCC2=[N+]3C(=Cc4c(C)cc(C)n4[B-]3(F)F)C=C2)C1=O)NC(C)=O)C(=O)N[C@@H](Cc1ccc(O)cc1)C(=O)N[C@@H](CCCCN)C(=O)N[C@@H](C)C(=O)N[C@@H](CCCNC(=N)N)C(=O)N[C@@H](Cc1ccccc1)C(=O)N[C@@H](CCC(N)=O)C(=O)N[C@@H](C)C(=O)N[C@@H](CCC(=O)O)C(=O)N[C@@H](CCCNC(=N)N)C(=O)N[C@@H](Cc1c[nH]cn1)C(=O)N[C@@H](C)C(=O)N[C@@H](CCCNC(=N)N)C(=O)N[C@@H](CCC(=O)O)C(=O)N[C@@H](CCCCN)C(N)=O` (stereo partly drawn) [BODIPY-R7-NLM-DR] (Ac-C(BODIPYFLEthylmaleimide)RRRRRRRLKAQADIYKARFQAERHAREK-NH2), for which the “Cellular uptake relative efficiency (FACS)” value in the data set with 70Z/3-C3 cells is listed as “++++”. In data set [1], the “Cytotoxicity Cell morphology FACS” value is on record as “no” and the “Cytotoxicity Cell morphology Microscope” value is recorded as “no”.
For `CC[C@H](C)[C@H](NC(=O)[C@H](CC(=O)O)NC(=O)[C@H](C)NC(=O)[C@H](CCC(N)=O)NC(=O)[C@H](C)NC(=O)[C@H](CCCCN)NC(=O)[C@H](CC(C)C)NC(=O)[C@H](CCCNC(=N)N)NC(=O)[C@H](CCCNC(=N)N)NC(=O)[C@H](CCCNC(=N)N)NC(=O)[C@H](CCCNC(=N)N)NC(=O)[C@H](CCCNC(=N)N)NC(=O)[C@H](CCCNC(=N)N)NC(=O)[C@H](CCCNC(=N)N)NC(=O)[C@H](CCCNC(=N)N)NC(=O)[C@H](CCCNC(=N)N)NC(=O)[C@H](CSC1CC(=O)N(CCNC(=O)CCC2=[N+]3C(=Cc4c(C)cc(C)n4[B-]3(F)F)C=C2)C1=O)NC(C)=O)C(=O)N[C@@H](Cc1ccc(O)cc1)C(=O)N[C@@H](CCCCN)C(=O)N[C@@H](C)C(=O)N[C@@H](CCCNC(=N)N)C(=O)N[C@@H](Cc1ccccc1)C(=O)N[C@@H](CCC(N)=O)C(=O)N[C@@H](C)C(=O)N[C@@H](CCC(=O)O)C(=O)N[C@@H](CCCNC(=N)N)C(=O)N[C@@H](Cc1c[nH]cn1)C(=O)N[C@@H](C)C(=O)N[C@@H](CCCNC(=N)N)C(=O)N[C@@H](CCC(=O)O)C(=O)N[C@@H](CCCCN)C(N)=O` (stereo partly drawn) [BODIPY-R9-NLM-DR] (Ac-C(BODIPYFLEthylmaleimide)RRRRRRRRRLKAQADIYKARFQAERHAREK-NH2), the “Cellular uptake relative efficiency (FACS)” value in the data set with 70Z/3-C3 cells is recorded as “++”. For the same compound, in data set [1], the “Cytotoxicity Cell morphology FACS” value is recorded as “no” and the “Cytotoxicity Cell morphology Microscope” value is listed as “no”. Also, the “Cytotoxicity MTS Assay” value in data set [1] (MTS cell proliferation assay (Promega)) is listed as “no”.
As for “B-CRQIKIWFQNRRMKWKKSKGMQLEDLRQQGQQAEEAGVAKQELGDKLKEEAEQHKIV (C(BODIPY)RQIKIWFQNRRMKWKKSKGMQLEDLRQQGQQAEEAGVAKQELGDKLKEEAEQHKIV-NH2; not fully specified (N-terminus); printed as B-CRQIKIWFQNRRMKWKKSKGMQLEDLRQQGQQAEEAGVAKQELGDKLKEEAEQHKIV; reading uncertain) [BODIPY-Ant-CC2 (Mu)]”, the “Effect on LPS-induced NF-κB activation” value in data set [2] was “did not affect the NF-κB activation”.
For “SKGMQLEDLRQQLQQAEEALVAKQELIDKLKEEAEQHKIV [CC2 (WT)]”, the “LPS-induced NF-κB activation, peptides not fused to antennapedia” value in data set [3] is reported as “same level of activation as the control”. In addition, the “Oligomeric state by gel filtration” value in data set [4] is “trimer”. Besides, the “Helix stability by circular dichroism” value in data set [5] is recorded as “helix more stable than LZ”.
